Where “and” joins values, the source holds several entries; their conditions need not be identical. Equal entries are not always repeated.
Tested on: 233499-124-R-J3-PDC complex spheroid growth
Experiment: Anticancer human tumor 233499-124-R-J3-PDC patient-derived colon adenocarcinoma cell line growth inhibition [AhR]
Conditions: for viability, T/C: stronger effect = lower value
Text: Multicellular complex tumor spheroid response to aryl hydrocarbon receptor antagonists in combination with a variety of drugs and investigational agents in selected tumor cell lines
The current study was undertaken to assess response to aryl hydrocarbon receptor antagonists in combination with standard-of-care drugs and investigational agents in solid tumor complex spheroid models. Complex spheroids include a stromal component modeled by human endothelial cells (HUVEC) and fibroblasts modeled by human mesenchymal stem cells (MSCs). The concentration ranges selected for each drug and investigational agent were based upon clinically achievable concentrations if the clinical Cmax of the agent was known.
Compounds. The drugs and investigational agents: BAY 2416964 (NSC825713), GNF351 (NSC835774), CH-223191 (NSC835775), CPI-455 (NSC825282), aza-TdCyd (NSC777586), decitabine (NSC127716), belinostat (NSC758774), entinostat (NSC756642), pevonedistat (NSC761192), tazemetostat (NSC777109), talazoparib (NSC765396), olaparib (NSC753686), selinexor (NSC780203), nedisertib (M3814, NSC802822), bortezomib (NSC756655), venetoclax (NSC766270), doxorubicin (NSC123127), elimusertib (BAY189344, NSC800525), ceralasertib (AZD6738, NSC777638), TAK-243 (NSC785004), alisertib (NSC759677), etoposide (NSC141540), topotecan (NSC609699), eribulin (NSC707389), gemcitabine (NSC613327), carboplatin (NSC241240), cisplatin (NSC119875), and SN-38 (NSC673596) were obtained from the National Cancer Institute (NCI) Developmental Therapeutics Program Chemical Repository (32). The FDA-approved anticancer drug set is available from the Developmental Therapeutics Program at https://dtp.cancer.gov/organization/dscb/obtaining/available plates.htm. […] The stock solutions were prepared in dimethyl sulfoxide (DMSO, Sigma-Aldrich, St. Louis, MO, cat. D2650), except for the platinum compounds which were prepared in saline (Quality Biological, Gaithersburg, MD, cat. 114-055-101), at 800-fold the tested concentration and stored at -70 degrees C prior to their use. All drugs and investigational agents were tested over a range starting from a high concentration at or near the clinical Cmax and decreasing in half-log increments. If the clinical Cmax for an agent had not been determined, the highest concentration tested was 10 microM (Table 1).
Cell Culture. All cells were maintained in an incubator at 37 degrees C and 5% CO2 with 95% humidity. The PDC lines were cultured according to standard operating procedures established by the NCI PDMR (https://pdmr.cancer.gov). Briefly, all PDCs were thawed and cultured in Matrigel-coated flasks prepared with a working solution of 1X Ham's F-12 nutrient mix, without supplementation (Invitrogen, Waltham, MA, cat. 11765054), 100 U/mL penicillin-streptomycin (Invitrogen, cat. 15140122), and 2.5% Matrigel (Corning Inc., Corning, NY, cat. 354248) for the first three passages. All PDCs were cultured in complete DMEM/F-12 media containing advanced DMEM/F-12 (Invitrogen, cat. 12634028), 4.9% defined fetal bovine serum, heat inactivated (HyClone Laboratories Inc., Logan, UT, cat. SH30070.03HI), 389 ng/mL hydrocortisone (Sigma-Aldrich, cat. H4001), 9.7 ng/mL human EGF recombinant protein (Invitrogen, cat. PHG0313), 23.4 microg/mL adenine (Sigma-Aldrich, cat. A2786), 97.3 U/mL penicillin-streptomycin (Invitrogen, cat. 15140122), 1.9 mM L-glutamine (Invitrogen, cat. 25030081), and 9.7 microM Y-27632 dihydrochloride (Tocris Bioscience, Bristol, United Kingdom, cat. 1254). The PDCs were cultured in complete DMEM/F12 media without 10 microM Y-27632 dihydrochloride for at least two passages prior to the screen. The established cell lines NCI-H1341 and […] were cultured in DMEM/F-12, HEPES (Invitrogen, cat. 11330032), 5% defined fetal bovine serum (HyClone Laboratories Inc., cat. SH30070.03), ITS premix universal culture supplement [insulin (5 microg/mL), transferrin (5 microg/mL), and selenious acid (5 ng/mL)] […]
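Also: spheroids exposed to agents for seven days before reading.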

Structure (SMILES): CC1(C)CCC(CN2CCN(c3ccc(C(=O)NS(=O)(=O)c4ccc(NCC5CCOCC5)c([N+](=O)[O-])c4)c(Oc4cnc5[nH]ccc5c4)c3)CC2)=C(c2ccc(Cl)cc2)C1 + Cc1cncc(-c2nc(NCCc3c[nH]c4ccccc34)c3ncn(C(C)C)c3n2)c1
- IC50 (curve of first compound, second compound 0.1 µM): > 10 µM
- IC50 (curve of first compound, second compound 0.316 µM): > 10 µM
- IC50 (curve of first compound, second compound 1 µM): > 10 µM
- IC50 (curve of first compound, second compound 3.16 µM): > 10 µM
- IC50 (curve of first compound, second compound 10 µM): < 0.0316 µM
- viability, T/C (second compound 0.1 µM, first compound 0.0316 µM): 103%
- viability, T/C (second compound 0.1 µM, first compound 0.1 µM): 97.9%
- viability, T/C (second compound 0.1 µM, first compound 0.316 µM): 92.6%
- viability, T/C (second compound 0.1 µM, first compound 1 µM): 104%
- viability, T/C (second compound 0.1 µM, first compound 3.16 µM): 100%
- viability, T/C (second compound 0.1 µM, first compound 10 µM): 109%
- viability, T/C (second compound 0.316 µM, first compound 0.0316 µM): 82%
- viability, T/C (second compound 0.316 µM, first compound 0.1 µM): 95%
- viability, T/C (second compound 0.316 µM, first compound 0.316 µM): 88.2%
- viability, T/C (second compound 0.316 µM, first compound 1 µM): 95.7%
- viability, T/C (second compound 0.316 µM, first compound 3.16 µM): 96.8%
- viability, T/C (second compound 0.316 µM, first compound 10 µM): 96.3%
- viability, T/C (second compound 1 µM, first compound 0.0316 µM): 94.6%
- viability, T/C (second compound 1 µM, first compound 0.1 µM): 84.2%
- viability, T/C (second compound 1 µM, first compound 0.316 µM): 85.8%
- viability, T/C (second compound 1 µM, first compound 1 µM): 82%
- viability, T/C (second compound 1 µM, first compound 3.16 µM): 85.2%
- viability, T/C (second compound 1 µM, first compound 10 µM): 89.3%
- viability, T/C (second compound 3.16 µM, first compound 0.0316 µM): 71.6%
- viability, T/C (second compound 3.16 µM, first compound 0.1 µM): 68.5%
- viability, T/C (second compound 3.16 µM, first compound 0.316 µM): 76.5%
- viability, T/C (second compound 3.16 µM, first compound 1 µM): 63.5%
- viability, T/C (second compound 3.16 µM, first compound 3.16 µM): 70.3%
- viability, T/C (second compound 3.16 µM, first compound 10 µM): 81.7%
- viability, T/C (second compound 10 µM, first compound 0.0316 µM): 12%
- viability, T/C (second compound 10 µM, first compound 0.1 µM): 9.79%
- viability, T/C (second compound 10 µM, first compound 0.316 µM): 7.48%
- viability, T/C (second compound 10 µM, first compound 1 µM): 23.7%
- viability, T/C (second compound 10 µM, first compound 3.16 µM): 8.38%
- viability, T/C (second compound 10 µM, first compound 10 µM): 15.6%

Structure (SMILES): O=C(C=Cn1cnc(-c2cc(C(F)(F)F)cc(C(F)(F)F)c2)n1)NNc1cnccn1
- viability, T/C (compound 0.00949 µM): 101% and 111% and 105%
- viability, T/C (compound 0.03 µM): 104% and 93.9% and 109%
- viability, T/C (compound 0.0949 µM): 105% and 106% and 103%
- viability, T/C (compound 0.3 µM): 108% and 96.7% and 90.6%
- viability, T/C (compound 0.949 µM): 81.6% and 74.5% and 86%
- viability, T/C (compound 3 µM): 60.7% and 70.6% and 74.3%
- IC50 (curve of compound): > 3 µM

Structure (SMILES): CCN(c1cc(-c2ccc(CN3CCOCC3)cc2)cc(C(=O)NCc2c(C)cc(C)[nH]c2=O)c1C)C1CCOCC1
- viability, T/C (compound 0.00949 µM): 92.4% and 97.3% and 86.5%
- viability, T/C (compound 0.03 µM): 107% and 97% and 98%
- viability, T/C (compound 0.0949 µM): 96.5% and 90.3% and 94.9%
- viability, T/C (compound 0.3 µM): 103% and 96.3% and 91.4%
- viability, T/C (compound 0.949 µM): 102% and 109% and 100%
- viability, T/C (compound 3 µM): 106% and 97.9% and 96.6%
- IC50 (curve of compound): > 3 µM
